# Source: US10787607B2, “High efficiency fluorescent compound and method for preparing the same” (SNU R&DB FOUNDATION, priority 2011, dated 2020)
# Columns and labels:
# [1] = tested on: Caspase-3 and PARP in breast epithelial cell line; assay: Western Blotting Test, breast epithelial cell line; format: cell-based; conditions: breast epithelial cell line, 1, 10 and 100 μM, FIG. 14
# Protocol: (§1) After a certain period of time, the degree of cell extinction is evaluated by examining the degree of expression of extinction and damage of a specific factor by using Western Blotting Test and the result is shown in FIG. 14.
# breast epithelial cell = assay: Trypan Blue Exclusion Test; format: cell-based; conditions: both test concentrations 1 μM and 10 μM, FIG. 13
# Protocol: (§2) In the presence of a test compound or a comparative compound, a cell line is cultured for a certain period of time (about 72 hours) and then a cytotoxicity test is conducted. As a control group, a blank test is conducted in the same manner as above without adding any compound including the test compound and the comparative compound.
# [2] = tested on: breast epithelial cell line; assay: Cytomorphology Test (microscopic examination of cultured cells); format: cell-based; conditions: cultured about 72 hours, FIG. 12
# Protocol: as §2
# [3] = in ethanol; cited from earlier work
# [4] = tested on: Caspase-3 and PARP in osteosarcoma cell line (U2OS); assay: Western Blotting Test, osteosarcoma cell line (U2OS); format: cell-based; conditions: U2OS cells, 10 μM, FIG. 14
# Protocol: as §1
structure (smiles),measurement,setting,value
"CC(=O)/C=C/c1ccc2cc(O)cc(O)c2c1 [Example 1, (E)-4-(6,8-dihydroxynaphthalen-2-yl)but-3-en-2-one]","Western blot peaks from cell extinction and damage (Caspase-3, PARP)",[1],"no peak at 17 kDa, 19 kDa and 89 kDa positions"
same,number of cells alive (trypan blue) vs control group,breast epithelial cell,number of cells similar to that of the control group
same,cytomorphology and number change of the cultured cell vs control group,[2],no significant difference from the control group
CCN=c1cc2oc3cc(NCC)c(C)cc3c(-c3ccccc3C(=O)OCC)c-2cc1C.Cl [rhodamin 6G],quantum yield of reference standard,[3],0.95
COc1cc([C@@H]2c3cc4c(cc3[C@@H](O[C@@H]3O[C@@H]5CO[C@@H](C)O[C@H]5[C@H](O)[C@H]3O)[C@H]3COC(=O)[C@H]23)OCO4)cc(OC)c1O [Etoposide],"Western blot peaks from cell extinction and damage (Caspase-3, PARP)",[4],"significantly remarkable peak at 17 kDa, 19 kDa and 89 kDa positions"
